In experiment [1] the test system is TCF/LEF activity in pancreatic CSCs. Briefly: TCF/LEF responsive reporter. Format: cell-based, human. How it is done:
(A) Pancreatic CSCs were treated with EGCG (0-60 μM) for 48 h. At the end of incubation period, the expression of Snail, ZEB1 and Slug was measured by q-RT-PCR. […] (B) Transwell migration assay. Pancreatic CSCs were plated in the top chamber of the transwell and treated with EGCG (0-60 μM) for 24 h. Cells migrated to the lower chambered were fixed with methanol, stained with crystal violet and counted. […] (C) Matrigel invasion assay. CSCs were plated onto the Matrigel-coated membrane in the top chamber of the transwell and treated with EGCG (0-60 μM) for 48 h. Cells invaded to the lower chambered were fixed with methanol, stained with crystal violet and counted. […] (D) Effects of EGCG on TCF-1/LEF activity. […] Transduced CSCs were treated with EGCG (0-60) for 48 h and the GFP fluorescence was measured. […] Cell viability was measured by trypan blue assay. […] At the end of incubation period, colonies were counted. […] Cells invaded to the lower chambered were fixed with methanol, stained with crystal violet and counted. […] Cells migrated to the lower chambered were fixed with methanol, stained with crystal violet and counted. […] Apoptosis was measured by TUNEL assay. […] Transduced CSCs were treated with EGCG (40 μM) with or without quercetin (20 μM) for 48 hrs and the luciferase activity was measured.

Experiment [2] has as its system Prostate CSCs. The experiment can be described thus: caspase-3 activity. The experiment is classed as cell-based, human. The conditions noted are these: 24 h; embelin 0-6 μM, rottlerin 0-2 μM. How it is done:
(§1) In particular, embelin is shown to inhibit spheroid and colony formation, and induce caspase-3 and apoptosis. (A) Prostate CSCs were grown in CSC medium and treated with embelin (0-6 μM) for 7 days to obtain primary spheroids. At the end of incubation period, spheroids were collected, reseeded and treated with embelin for another week to obtain secondary spheroids. Cell viability in spheroids was measured by trypan blue assay at the end of 7 and 14 days. […] (B) Prostate CSCs were seeded in soft agar and treated with embelin (0-6 μM) for 21 days. […] (C and D) Activation of caspase-3 and induction of apoptosis is shown.
(§2) (A) Prostate CSCs were grown in CSC medium and treated with rottlerin (0-2 μM) for 7 days to obtain primary spheroids. At the end of incubation period, spheroids were collected, reseeded and treated with rottlerin for another week to obtain secondary spheroids. Cell viability in spheroids was measured by trypan blue assay at the end of 7 and 14 days. […] (B) Prostate CSCs were seeded in soft agar and treated with rottlerin (0-2 μM) for 21 days. […] (C and D) Activation of caspase-3 and induction of apoptosis.

Experiment [3] has as its system Prostate CSCs. Briefly: spheroid formation and cell viability in spheroids (trypan blue). The experiment is classed as cell-based, human. The conditions noted are these: 7 and 14 days, embelin 0-6 μM, rottlerin 0-2 μM. As to the method:
as §1, §2
The effects of embelin on growth of prostate CSCs was studied by measuring cell viability and colony formation, as shown in FIGS. 9A and 9B. […]

In experiment [4] the test system is Prostate CSCs. Briefly: colony formation in soft agar. The conditions noted are these: 21 days; embelin 0-6 μM, rottlerin 0-2 μM. The experiment is classed as cell-based, human. How it is done: as §1, §2
In experiment [5] the test system is Gli1 and Gli2 in prostate CSCs. The experiment can be described thus: immunofluorescence analysis of Gli1 and Gli2 expression. The experiment is classed as cell-based, human. The conditions noted are these: measured by IFC. As to the method:
FIG. 17 graphs showing the regulation of Shh, Notch and TGFβ pathways by rottlerin. […] The expression of Patched-1, Patched-2, SMO, Gli1 and Gli2 was measured by qRT-PCR. […] Data were normalized with GAPDH. (D) Prostate CSCs were treated with rottlerin (0-1 μM) for 24 h. The expression of Notch1, Notch3 and JAG1 was measured by qRT-PCR. (E) TCF/LEF-1, Gli and Notch reporter activities. Prostate CSCs were transduced with a mixture of TCF/LEF1-, Gli-, or Notch-responsive firefly luciferase construct and Renilla luciferase construct (40:1) along with lipofectamine. After transduction, medium was changed and CSCs were treated with rottlerin (0-2 μM) for 24 h. […] (F) Immunofluorescence analysis of Gli1 and Gli2 expression in prostate CSCs. Green=Gli1 or Gli2; red=nucleus.

A further experiment concerns pancreatic cancer. The conditions noted are these: KrasG12D mice.
The test system of the next experiment is Brain CSCs. The experiment can be described thus: cell viability by XTT assay. The experiment is classed as cell-based. The conditions noted are these: 3 days; 0-20 μM. As to the method:
(A-B) Brain CSCs were treated with sulforaphane (0-20 μM), and honokiol (0-20 μM) for 3 days, and cell viability was measured by XTT assay.
(Formazan colour is commonly taken as a measure of viable cells.)

With `O=C(O[C@@H]1Cc2c(O)cc(O)cc2O[C@@H]1c1cc(O)c(O)c(O)c1)c1cc(O)c(O)c(O)c1` [EGCG, epigallocatechin gallate], in experiment [1] (EGCG 0-60, 48 h), the TCF/LEF activity entry is “inhibited TCF/LEF activity”. Besides, in experiment [1] (EGCG 40 μM with or without quercetin 20 μM, 48 hrs, luciferase), the TCF/LEF transcriptional activity result was “inhibited”.
With `CC(=O)c1c(O)c(C)c(O)c(Cc2c(O)c3c(c(C(=O)/C=C/c4ccccc4)c2O)OC(C)(C)C=C3)c1O` [rottlerin], the caspase-3 activity entry in the experiment on Prostate CSCs [2] is “induces”. Further, the “size of primary and secondary spheroids in suspension” value with Prostate CSCs [3] (data not shown) was “inhibited the size”. Besides, the “cell viability in spheroids” value in the experiment on Prostate CSCs [3] (primary and secondary spheroids, trypan blue) is “inhibited”. For the same molecule, the “colony formation in soft agar” value with Prostate CSCs [4] is listed as “inhibited”. For the same molecule, in experiment [5], the “nuclear expression of constitutively active Gli1” value is recorded as “inhibited the nuclear expression” and the “nuclear expression of constitutively active Gli2” value is “inhibited the nuclear expression”.
Consider `C[S+]([O-])CCCCN=C=S` (stereo not shown) [sulforaphane], for which the pancreatic cancer progression entry with pancreatic cancer is recorded as “inhibits the growth of pancreatic cancer progression”. Besides, the cell viability entry in the experiment with Brain CSCs was “inhibit cell viability”.

The values are drawn from patent US20160374944A1, “COMPOSITIONS AND METHODS FOR TREATING AND PREVENTING CANCER BY TARGETING AND INHIBITING CANCER STEM CELLS” (priority 2011, published 2016).
